Measurements reported in patent publication US12115221B2, “Pickering emulsion stabilized by cellulose nanocrystals from ginkgo seed shells and preparation method thereof” (Jiangnan University, priority 2019, dated 2024).

Assay: Degradation rate of curcumin on storage
Type: physicochemical
Conditions: storage at room temperature for 7 days
Description: Curcumin was dissolved in an oil phase. The CNCs with low aspect ratio obtained in the Example 6 were diluted to 0.3 wt %, and an emulsion was prepared according to the oil-water ratio of 1:9. Subsequently, high-speed shearing was carried out at 10000 rpm for 2 min using high-speed shearing equipment to obtain a coarse emulsion, and then the coarse emulsion was circulated 4 times at 30 MPa using a high-pressure homogenizer to obtain the final Pickering emulsion. Determination of degradation rate of curcumin: a certain volume of emulsion was taken; the emulsion was mixed with ethanol in a ratio of 1:1; the mixture was centrifuged at 11000 rpm for 5 min; the supernatant was collected; and the absorbance at 426 nm was measured. Formula of degradation rate: Degradation rate (100%)=m1/m2×100, wherein m1 is the mass of curcumin after the emulsion is placed, and m2 is the mass of curcumin before the emulsion is placed.

Compound: COc1cc(/C=C/C(=O)CC(=O)/C=C/c2ccc(O)c(OC)c2)ccc1O [curcumin in the aqueous solution, Curcumin]
- degradation rate of curcumin: 80%
